In patent US20180148418A1, “AMIDO-SUBSTITUTED CYCLOHEXANE DERIVATIVES” (Bayer Pharma Aktiengesellschaft, priority 2015, published 2018):

Assays:
[1] = tested on: wildtype Wnt signaling cascade; test: HEK293 TOP assay (Super TopFlash luciferase reporter, Wnt-3a stimulated); format: cell-based; conditions: Homo sapiens, HEK293, 16 h, HEK293 TOP reporter cells, Wnt3a at EC50, 16 hours
Procedure, shortened: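 HEK293 cells stably carrying Super TopFlash (TOP) run in parallel with FOP cells, 10000/well plated 24 h ahead, stimulated with recombinant human Wnt-3a. Compounds tested 50 μM to 15 nM in 3.16-fold steps in CAFTY buffer pH 7.4 with 2 mM Ca^2+ and 0.01% BSA; luciferase read-out.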

TNKS1 = target: T1, TNKS1 (Homo sapiens, UniProt O95271); test: TNKS1 Assay B (auto-parsylation, [3H]-NAD+ SPA); format: biochemical; conditions: 6 nM TNKS1, auto-parsylation, over night at room temperature
T1 construct: purchased BPS Bioscience, San Diego, USA 80579 (TNKS1 Histone Ribosylation Assay Kit)
T1 sequence (O95271 1-1327): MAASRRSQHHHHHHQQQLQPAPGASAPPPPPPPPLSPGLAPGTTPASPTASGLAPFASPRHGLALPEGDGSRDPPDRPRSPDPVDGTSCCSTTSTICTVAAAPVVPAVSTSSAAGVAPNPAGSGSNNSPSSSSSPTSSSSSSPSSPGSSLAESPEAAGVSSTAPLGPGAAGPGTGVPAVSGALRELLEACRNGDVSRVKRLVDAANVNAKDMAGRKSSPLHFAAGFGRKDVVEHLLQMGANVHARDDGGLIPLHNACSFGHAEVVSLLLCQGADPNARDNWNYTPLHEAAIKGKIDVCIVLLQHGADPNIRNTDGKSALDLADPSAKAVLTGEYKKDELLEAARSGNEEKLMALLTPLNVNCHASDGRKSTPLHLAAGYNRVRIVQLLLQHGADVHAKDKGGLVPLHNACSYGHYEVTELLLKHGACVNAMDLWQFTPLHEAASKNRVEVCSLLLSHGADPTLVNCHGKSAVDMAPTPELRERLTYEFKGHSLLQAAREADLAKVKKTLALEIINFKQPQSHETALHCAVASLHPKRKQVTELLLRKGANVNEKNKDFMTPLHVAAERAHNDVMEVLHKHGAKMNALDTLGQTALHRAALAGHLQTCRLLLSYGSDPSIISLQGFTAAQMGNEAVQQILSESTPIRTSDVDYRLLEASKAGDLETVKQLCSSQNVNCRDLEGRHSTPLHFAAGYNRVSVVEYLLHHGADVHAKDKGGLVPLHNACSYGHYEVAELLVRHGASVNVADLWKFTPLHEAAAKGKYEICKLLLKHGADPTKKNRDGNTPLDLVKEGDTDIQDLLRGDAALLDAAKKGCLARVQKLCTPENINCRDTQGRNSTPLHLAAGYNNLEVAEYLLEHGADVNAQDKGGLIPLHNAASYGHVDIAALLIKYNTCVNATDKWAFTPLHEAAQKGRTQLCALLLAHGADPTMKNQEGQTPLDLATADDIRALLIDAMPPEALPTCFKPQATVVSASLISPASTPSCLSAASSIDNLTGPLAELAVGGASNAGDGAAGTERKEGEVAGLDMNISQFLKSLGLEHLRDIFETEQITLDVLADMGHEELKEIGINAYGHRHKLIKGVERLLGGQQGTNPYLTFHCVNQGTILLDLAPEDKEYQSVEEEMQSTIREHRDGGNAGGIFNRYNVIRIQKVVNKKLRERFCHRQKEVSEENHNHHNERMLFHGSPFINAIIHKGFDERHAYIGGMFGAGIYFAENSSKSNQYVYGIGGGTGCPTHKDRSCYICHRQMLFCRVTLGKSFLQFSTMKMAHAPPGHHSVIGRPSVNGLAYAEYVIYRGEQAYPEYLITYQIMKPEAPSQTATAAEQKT

| Compound | IC50 [1] | IC50 (TNKS1) |
| --- | --- | --- |
| O=C(N[C@H]1CC[C@@]2(CCN(c3cccc(Cl)c3)C2=O)CC1)c1[nH]cnc1C(=O)N1CCOCC1 [Example 286, N-[(trans)-2-(3-chlorophenyl)-1-oxo-2-azaspiro[4.5]dec-8-yl]-4-(morpholin-4-ylcarbonyl)-1H-imidazole-5-carboxamide] | 28 nM | 8600 nM |
| CNC(=O)c1nc[nH]c1C(=O)N[C@H]1CC[C@@]2(CCN(c3cc(C)c(F)cc3Cl)C2=O)CC1 [Example 288, N^5-[(trans)-2-(2-chloro-4-fluoro-5-methylphenyl)-1-oxo-2-azaspiro[4.5]dec-8-yl]-N^4-methyl-1H-imidazole-4,5-dicarboxamide] | 1.4 nM | 6.7 nM |
| CCNC(=O)c1nc[nH]c1C(=O)N[C@H]1CC[C@@]2(CCN(c3cc(C)c(F)cc3Cl)C2=O)CC1 [Example 289, N^5-[(trans)-2-(2-chloro-4-fluoro-5-methylphenyl)-1-oxo-2-azaspiro[4.5]dec-8-yl]-N^4-ethyl-1H-imidazole-4,5-dicarboxamide] | 1.8 nM | 8.7 nM |
| Cc1cc(N2CC[C@]3(CC[C@@H](NC(=O)c4[nH]cnc4C(=O)NCCN4CCC(C)CC4)CC3)C2=O)c(Cl)cc1F [Example 290, N^5-[(trans)-2-(2-chloro-4-fluoro-5-methylphenyl)-1-oxo-2-azaspiro[4.5]dec-8-yl]-N^4-[2-(4-methylpiperidin-1-yl)ethyl]-1H-imidazole-4,5-dicarboxamide] | 4.7 nM | 6.2 nM |
| Cc1cc(N2CC[C@]3(CC[C@@H](NC(=O)c4[nH]cnc4C(=O)NCC(F)(F)F)CC3)C2=O)c(Cl)cc1F [Example 297, N^5-[(trans)-2-(2-chloro-4-fluoro-5-methylphenyl)-1-oxo-2-azaspiro[4.5]dec-8-yl]-N^4-(2,2,2-trifluoroethyl)-1H-imidazole-4,5-dicarboxamide] | 6.9 nM | 10 nM |
| O=C(N[C@H]1CC[C@@]2(CCN(c3cc(F)c(F)cc3Cl)C2=O)CC1)c1cnc2cccnn12 [Example 298, N-[(trans)-2-(2-chloro-4,5-difluorophenyl)-1-oxo-2-azaspiro[4.5]dec-8-yl]imidazo[1,2-b]pyridazine-3-carboxamide] | 4.9 nM | 6.1 nM |
| Cc1cc(C)n2ncc(C(=O)N[C@H]3CC[C@@]4(CCN(c5cc(F)c(F)cc5Cl)C4=O)CC3)c2n1 [Example 299, N-[(trans)-2-(2-chloro-4,5-difluorophenyl)-1-oxo-2-azaspiro[4.5]dec-8-yl]-5,7-dimethylpyrazolo[1,5-a]pyrimidine-3-carboxamide] | 0.9 nM | 7.1 nM |
| Cc1cc(N2CCC[C@]3(CC[C@@H](NC(=O)c4cnn5cccnc45)CC3)C2=O)c(Cl)cc1F [Example 300, N-[(trans)-2-(2-chloro-4-fluoro-5-methylphenyl)-1-oxo-2-azaspiro[5.5]undec-9-yl]pyrazolo[1,5-a]pyrimidine-3-carboxamide] | 18 nM | 94 nM |
| Cc1cc(N2CCC[C@]3(CC[C@@H](NC(=O)c4cnc5cccnn45)CC3)C2=O)c(Cl)cc1F [Example 301, N-[(trans)-2-(2-chloro-4-fluoro-5-methylphenyl)-1-oxo-2-azaspiro[5.5]undec-9-yl]imidazo[1,2-b]pyridazine-3-carboxamide] | 28 nM | 130 nM |
| Cc1cc(C)n2ncc(C(=O)N[C@H]3CC[C@@]4(CCCN(c5cc(C)c(F)cc5Cl)C4=O)CC3)c2n1 [Example 302, N-[(trans)-2-(2-chloro-4-fluoro-5-methylphenyl)-1-oxo-2-azaspiro[5.5]undec-9-yl]-5,7-dimethylpyrazolo[1,5-a]pyrimidine-3-carboxamide] | 42 nM | 170 nM |
| COCCNC(=O)c1nc[nH]c1C(=O)N[C@H]1CC[C@@]2(CCN(c3cc(C)c(F)cc3Cl)C2=O)CC1 [Example 334, N^5-[(trans)-2-(2-chloro-4-fluoro-5-methylphenyl)-1-oxo-2-azaspiro[4.5]dec-8-yl]-N^4-(2-methoxyethyl)-1H-imidazole-4,5-dicarboxamide] | 9.5 nM | 12 nM |
| COC(=O)c1cc(C)nc2c(C(=O)N[C@H]3CC[C@H](C(=O)Nc4c(F)cc(F)cc4Cl)CC3)cnn12 [Example 351, methyl 3-({trans-4-[(2-chloro-4,6-difluorophenyl)carbamoyl]cyclohexyl}carbamoyl)-5-methylpyrazolo[1,5-a]pyrimidine-7-carboxylate] | 6700 nM | 150 nM |
| COC(=O)c1cc(C)nc2c(C(=O)N[C@H]3CC[C@H](C(=O)Nc4ccc(F)cc4Cl)CC3)cnn12 [Example 352, methyl 3-({trans-4-[(2-chloro-4-fluorophenyl)carbamoyl]cyclohexyl}carbamoyl)-5-methylpyrazolo[1,5-a]pyrimidine-7-carboxylate] | 7500 nM | 350 nM |
| Cc1c(C(C)(C)O)cnc2c(C(=O)N[C@H]3CC[C@H](C(=O)Nc4ccc(F)cc4Cl)CC3)cnn12 [Example 359, N-{trans-4-[(2-chloro-4-fluorophenyl)carbamoyl]cyclohexyl}-6-(2-hydroxypropan-2-yl)-7-methylpyrazolo[1,5-a]pyrimidine-3-carboxamide] | 4000 nM | > 10000 nM |
| O=C(N[C@H]1CC[C@H](C(=O)Nc2ccc(F)cc2Cl)CC1)c1cnc2ccc(O)nn12 [Example 360, N-{trans-4-[(2-chloro-4-fluorophenyl)carbamoyl]cyclohexyl}-6-hydroxyimidazo[1,2-b]pyridazine-3-carboxamide] | 10000 nM | 2500 nM |
| Cc1nc2c(C(=O)N[C@H]3CC[C@H](C(=O)Nc4c(F)cc(F)cc4Cl)CC3)cnn2c2c1CCC2 [Example 363, N-{trans-4-[(2-chloro-4,6-difluorophenyl)carbamoyl]cyclohexyl}-5-methyl-7,8-dihydro-6H-cyclopenta[e]pyrazolo[1,5-a]pyrimidine-3-carboxamide] | 21 nM | 57 nM |
